Measured values from patent US20180104336A1, “Method of Increasing Radiation Sensitivity of Tumor Cells” (priority 2016, published 2018).
Entries after “also recorded” stand apart in the source; their conditions may differ.

What was measured:
[1] = test system: H460 and A549 lung tumor cells; test: Glutathione synthesis and excretion after GLS inhibition, cell lines not separated; type: cell-based, human; settings: for fold more effective in depletion of glutathione: compared with 100 to 10,000 μM buthionine sulfoximine reported previously; for glutathione synthesis and excretion: in vitro
Protocol: GLS inhibition experiments: In the mechanistic experiments with BPTES or CB-839, cells (7500) were seeded (Time—24 hrs) into 96-well plates containing 100 μl complete medium, and allowed to attach for 24 hrs. […] Media aliquots of 25 μl were removed from each well at 24, 36, and 48 hrs to monitor the time course of metabolite consumption and production (metabolomic footprint). Cells were maintained at 37° C., 5% CO2 and 40% humidity until time of harvest. Cell viability was determined using Cell Glow, Cell TOX or MTT assays according to manufacture descriptions.
LC-MS quantitation by liquid chromatography tandem mass spectrometry (LC-MS/MS): Metabolites were extracted from cell pellets by the addition of 3 ml of 50% methanol/0.2% formic acid to the frozen cells in the culture flasks. Cells were scraped from the culture flasks and transferred to 15 ml tubes. Proteins were precipitated from 750 μl cell pellet suspensions by addition of 1050 μl acetonitrile/0.2% formic acid. Metabolites were extracted from 25 or 100 μl culture media from 96 well plates or 25-T flasks, respectively, and with the respective addition of 275 μl or 1300 μl of 40% methanol/60% acetonitrile/0.2% formic acid. Cell pellets or media suspensions were incubated on ice for 30 min, followed by centrifugation for 10 min at 13000 g. Supernatants were transferred to new vials, solvents were removed in a speed vac and the concentrated metabolites stored at -80° C. until analysis.
Samples were reconstituted in 0.2% formic acid and analyzed by LC-MS/MS (Agilent, 1290 Infinity LC coupled to an Agilent 6490 triple quadrupole mass analyzer). An Agilent Poroshell 2.7 μm C18 (2.1 mm×100 mm) column was operated with a linear gradient from 2% Methanol/0.01% formic acid to 95% Methanol/0.01% formic acid in 10 min. Individual metabolites were monitored in multiple reactions monitoring mode, monitoring specific ion transitions shown in Table 1. The specific ion transitions and retention times for each metabolite were established experimentally using commercially available standard compounds. Quantitation of the individual metabolites were based on external calibration curves that were generated with each set of samples. In the stable isotope tracing experiment, ^13C5-incorporation into subsequent metabolites was determined by monitoring the corresponding m/z ion transitions (Table 1).

A549 cells [2] = test: GSHE experiment: cell viability and toxicity with 10 μM BPTES
Protocol: (§1) [^13C5]-glutamine experiments: To determine the fraction of glutathione that is derived directly from glutamine, A549 and H460 cell lines were cultured in 96-well plates in glutamine-free medium supplemented with 0.3 g/L [^13C5]-glutamine. Cell media aliquots were harvested at 12, 24, 36, and 48 hrs. Light microscopy was used at 12 hours to visualize the cells at each dosage. After 48 hours the CellTiter 96, CellTiter-Glo® 2.0, and CellTox™ Green Cytotoxicity assays, (Promega, Madison, Wis.) were utilized to respectively assess cell proliferation, cell viability, and cell death of both the BPTES and [^13C5]-glutamine experiments.
(§2) Glutathione-monoethyl ester (GSHE) experiments: Cells (7500) were seeded into 96 well plates containing 100 μl complete media. Cells were treated with 10 μM BPTES in DMSO and 0, 1, 5 and 10 mM GSHE. After 48 hrs cells were harvested and cell viability and toxicity were assessed as described above.

H460 cells [3] = test: as above
Protocol: as §1, §2

A549 cells [4] = test: Radiation sensitivity by clonogenic assay; type: cell-based, human; settings: 2 μM BPTES 24 h, 4 Gy and 8 Gy, p<0.001
Protocol: (§3) Radiation exposure of lung tumor cell lines: Radiation sensitivity was determined by methods described previously. In brief, for colony formation, A549 and H460 cells were seeded in 6-well plates containing 3 ml standard complete medium and allowed to attach for 24 h. Media were changed and cells were grown for another 24 h in standard medium, glutamine-free medium, medium containing 2 μM BPTES (to deplete glutathione), and medium containing only the vehicle. Cells were subsequently radiated using a Faxitron X-ray Generating System (CP-160, Faxitron X-Ray Corp., Wheeling, Ill.). Single-doses of 4 or 8 Gy (Gray) were delivered at a dose rate of 1 Gy/min (150 kVp and 6.6 mA). Cells were then placed in standard complete RPMI medium and allowed to form colonies for 8 days. The surviving colonies (containing >˜50 cells) were stained and counted on a stereomicroscope. Plating efficiency (PE) of cells with each treatment were determined and normalized to that of control untreated cells and the surviving fractions were calculated by dividing the PE of the treated cells by the PE of the control untreated cells.

H460 cells [5] = test: Radiation sensitivity by clonogenic assay; type: cell-based, human; settings: 2 μM BPTES 24 h, 4 Gy and 8 Gy, p<0.001
Protocol: as §3

A549 cells [6] = test: GLS inhibition experiment, bright field images of cell death; type: cell-based, human; settings: 10, 20, 40 and 100 μM, 48 hrs
Protocol: (§4) GLS inhibition experiments: In the mechanistic experiments with BPTES or CB-839, cells (7500) were seeded (Time—24 hrs) into 96-well plates containing 100 μl complete medium, and allowed to attach for 24 hrs. Complete medium was added (Time 0 hrs) containing various concentrations of GLS inhibitors to give the final concentrations of 0.001 to 100 μM. Media aliquots of 25 μl were removed from each well at 24, 36, and 48 hrs to monitor the time course of metabolite consumption and production (metabolomic footprint). Cells were maintained at 37° C., 5% CO2 and 40% humidity until time of harvest. Cell viability was determined using Cell Glow, Cell TOX or MTT assays according to manufacture descriptions.

H460 cells [7] = test: as above; type: cell-based, human; settings: 10, 20, 40 and 100 μM, 48 hrs
Protocol: as §4

[8] = test system: H460 and A549 lung tumor cells; type: cell-based; settings: for cell proliferation and viability: FIG. 4 and FIG. 8
Protocol: Media aliquots of 25 μl were removed from each well at 24, 36, and 48 hrs to monitor the time course of metabolite consumption and production (metabolomic footprint). Cells were maintained at 37° C., 5% CO2 and 40% humidity until time of harvest. Cell viability was determined using Cell Glow, Cell TOX or MTT assays according to manufacture descriptions.
Cells were seed in 6-well and allowed to attach for 1 day.
as §1, §3

H460 cell-derived tumors = test: H460 mouse xenograft, tumor volume with and without radiation; type: in vivo, nude mice
From the text: METHOD: Mouse xenograft experiments. For the first in vivo study, H460 cell-derived tumors were engrafted on the hind flank of 20 male. […] (1) control (2) CB-839, (3) 18 Gy radiation and (4) CB-839 plus 18 Gy radiation. For the second in vivo experiment, H460 cell-derived tumors were engrafted on the hind flank of 50 female nude mice. […] (1) Vehicle only, (2) 2 Gy radiation, (3) 4 Gy radiation, (4) 8 Gy radiation, (5) 12 Gy radiation, (6) Vehicle only plus CB-839, (7) 2 Gy radiation plus CB-839, (8) 4 Gy radiation plus CB-839, (9) […], (10) 12 Gy radiation plus CB-839. CB-839 was given three times at 20 mg/kg by oral gavage at 28, 16 and 4 hrs prior to a single dose of 18 Gy radiation. CB-839 was administered by oral gavage as solution of 200 mg/kg CB-839 in 200 ul 25% (w/v) hydroxypropyl-b-cyclodextrin in 10 mmol/[…], pH 2 or 25% (w/v) hydroxypropyl- b-cyclodextrin in 10 mmol/L citrate, pH 2. Thirty minutes prior to radiation treatment, 50 μl blood was taken form tail vein and serum was analyzed for reduced and oxidized GSH by LC-MS. Radiation was given as a single 1Gy/min dose for 2, 4, 8, 12, or 18 min respectively. Tumor volume measurements were repeated at the indicated days until termination of the animals. Tumor volume was computed by multiplying “a” times (“a” X “b”)/2. The “Mean tumor volumes” and “Relative tumor volume” for male and female mice are graphed in FIGS. 9A-B and FIGS. 10A-F, respectively.

[9] = test system: total glutathione in serum; test: Total glutathione (reduced plus oxidized) in serum by LC-MS at day of radiation; type: in vivo, nude mice
Protocol: CB-839 was given three times at 20 mg/kg by oral gavage at 28, 16 and 4 hrs prior to a single dose of 18 Gy radiation. CB-839 was administered by oral gavage as solution of 200 mg/kg CB-839 in 200 ul 25% (w/v) hydroxypropyl-b-cyclodextrin in 10 mmol/Lcitrate, pH 2 or 25% (w/v) hydroxypropyl- b-cyclodextrin in 10 mmol/L citrate, pH 2. Thirty minutes prior to radiation treatment, 50 μl blood was taken form tail vein and serum was analyzed for reduced and oxidized GSH by LC-MS. Radiation was given as a single 1Gy/min dose for 2, 4, 8, 12, or 18 min respectively. Tumor volume measurements were repeated at the indicated days until termination of the animals. Tumor volume was computed by multiplying “a” times (“a” X “b”)/2. The “Mean tumor volumes” and “Relative tumor volume” for male and female mice are graphed in FIGS. 9A-B and FIGS. 10A-F, respectively.

[10] = male nude mice, day #17, CB-839 20 mg/kg oral gavage 28, 16 and 4 hrs before 18 Gy

For O=C(Cc1ccccc1)Nc1nnc(CCSCCc2nnc(NC(=O)Cc3ccccc3)s2)s1 [BPTES, Bis-2-(5-phenyl-acetamido-1,3,4-thiadiazol-2-yl) ethyl sulfide], the “concentration at which glutathione excretion was essentially abolished” value ([1]; FIG. 4, H460 and A549) was greater than 5 µM, the “fold more effective in depletion of glutathione” value [1] was no less than 100 fold and the “glutathione synthesis and excretion” value [1] was “abolished glutathione excretion”. The cell viability (A549 cells [2]; 10 μM BPTES, 48 hrs) was “reduced viability”, the cell viability (H460 cells [3]; 10 μM BPTES, 48 hrs) was “reduced viability” and the “radiation response, colony formation compared to control cells” value (A549 cells [4]) was “radiation-induced reduction in colony formation”. The “radiation response, colony formation compared to control cells” value (H460 cells [5]) was “radiation-induced reduction in colony formation”, the “cell death, visual” value (A549 cells [6]) was “visual increase in cell death” and the “cell death, visual” value (H460 cells [7]) was “visual increase in cell death”. For the same compound, the “cell proliferation and viability” value [8] was “reduced cell proliferation and viability” and the cell growth ([8]; FIGS. 4A-4C) was “significant growth inhibition”.

In the case of O=C(Cc1cccc(OC(F)(F)F)c1)Nc1ccc(CCCCc2nnc(NC(=O)Cc3ccccn3)s2)nn1 [CB-839], the “fold more effective in depletion of glutathione” value [1] is reported as “at least 1000 fold”, the “glutathione synthesis and excretion” value [1] is reported as “successfully depletes glutathione synthesis and excretion; also recorded: abolished glutathione excretion” and the “cell proliferation and viability” value [8] is reported as “reduced cell proliferation and viability”. For the same compound, the “sensitivity to ionizing radiation in vitro” value ([8]; in vitro) was “increase sensitivity to ionizing radiation”, the “response to radiation treatment improved, based on tumor volume over time” value (H460 cell-derived tumors; H460 xenograft, short term (3 times) CB-839) was “more than 25%” and the “efficacy of short term CB-839 alone” value (H460 cell-derived tumors; H460 xenograft, short term (3 times) CB-839, no radiation) was “does not show efficacy”. The “tumor growth, CB-839 alone” value (H460 cell-derived tumors; female nude mice, 3 doses orally every 12 hrs) was “did not affect the tumor growth”, the “accelerated tumor growth caused by 2 Gy radiation” value (H460 cell-derived tumors; female nude mice, CB-839 plus 2 Gy) was “prevented” and the “mean tumor size smaller, CB-839 plus radiation compared to CB-839 alone” value (H460 cell-derived tumors; [10]) was 90%. For the same compound, the “mean tumor size smaller, CB-839 plus radiation compared to radiation alone” value (H460 cell-derived tumors; [10]) was 20%, the “tumor growth, CB-839 alone compared to control” value (H460 cell-derived tumors; male nude mice, three CB-839 treatments) was “did not affect subsequent tumor growth” and the “total glutathione in blood lower” value ([9]; female nude mice, time of radiation, three doses of 200 mg/Kg/bw at 28, 16 and 4 hrs earlier) was 53%. The serum glutathione reduced ([9]; in vivo, short term treatment) was greater than 50% and the “total GSH in serum lower compared to none treated mice” value ([9]; male nude mice, day #12 prior to radiation, CB-839 three times) was 56%.

For CCOC(=O)CNC(=O)[C@H](CS)NC(=O)CC[C@H](N)C(=O)O [GSHE, Glutathione-monoethyl ester], the “protection against BPTES-induced cytotoxicity” value (A549 cells [2]; 1-10 mM GSHE with 10 μM BPTES) was “dose-dependent protection” and the “protection against BPTES-induced cytotoxicity” value (H460 cells [3]; 1-10 mM GSHE with 10 μM BPTES) was “dose-dependent protection”.
